≈ marks a conversion by molar mass, not a printed value. Like-named read-outs stand apart in the source and are kept apart here.
Assays:
Aspergillus niger (ANIG) = assay: Minimum inhibitory concentration (MIC), broth two-fold serial dilution test; type: cell-based; details: Aspergillus niger, IIIB, trypticase soy broth (complex media); Table IIIb; read-out: MIC (F) ANIG
[1] = system: Aureobasidium pullulans (APUL); assay: as above; type: cell-based; details: Aureobasidium pullulans, IIIB, trypticase soy broth (complex media); Table IIIb; read-out: MIC (F) APUL
[2] = system: MIXED COOLING TOWER ALGAE; assay: MIC test against mixed cooling tower algae; type: cell-based, green algae and blue-green bacteria; details: Table VIII
Description: The algae culture contains green algae and blue-green bacteria, and is obtained from a cooling tower in Spring House, Pennsylvania. The algae culture is grown in Allen's medium on a rotary shaker under flourescent room lighting. This culture is further diluted with Allen's medium and then added to the test vessel.

8 FUNGI = assay: Microbicides secondary test against 8 fungi on Mycophile Agar at pH 5.0 (Table VI); type: cell-based; parameters: key: 1= no growth; 0= growth of the indicated fungi at dose indicated in ppm; details: for ANIG growth: Aspergillus niger; for APUL growth: Aureobasidium pullulans; for CGLO growth: Chaetomium globosum; for CRES growth: Cladosporium resinae; for GTRA growth: Gloeophyllum trabeum; for PFUN growth: Penicillium funiculosum; for RRUB growth: Rhodotorula rubra; for SSER growth: Sacharomyces cerevisiae
Source text: The results of the minimum inhibitory concentration (MIC) tests of compounds of this invention are shown in Tables IIIa IIIb, IIIc, V, VI, VII, and VIII against the microorganisms shown in Table IX.

THREE FUNGI = assay: MIC test against three fungi in Mycophile Broth, pH 5.0, read after 8 days (Table VII); type: cell-based; details: 192 h, serial dilutions from 50 ppm, read after 8 days of incubation
[3] = system: Pseudomonas fluorescens (PSFL); assay: Minimum inhibitory concentration (MIC), broth two-fold serial dilution test; details: Pseudomonas fluorescens, IIIB, read-out: MIC (G-) PSFL, trypticase soy broth (complex media); Table IIIb
Source text: (§1) When the test is ready to be done, each vessel in the dilution series, except the first vessel, contains an equal volume of compound free broth. The first vessel contains twice the volume of broth with the starting concentration of test compound. One half of the broth from the first vessel is transferred to the second vessel. After being mixed, one half the resulting volume is removed from the second vessel and transferred to the third vessel. The entire cycle is repeated sufficiently to give a series of concentrations amounting to 500, 250, 125, 63, 31, 16, 8, and 4 ppm (or 100, 50, 25, 12.5, 6.2, 3.1, 1.6, and 0.8), respectively.
(§2) Each vessel is then inoculated with a cell suspension of the appropriate test organism. Bacteria are grown in broth, fungi on agar slants for a time and at a temperature appropriate to the species being tested, and algae are a mixture of green algae and blue-green bacteria grown in a nutrient media. At the end of the growth period, in the case of bacteria, the broth is vortexed to disperse the cells.
(§3) The vessels are then incubated at the appropriate temperature. After the incubation, the vessels are examined for growth/no growth.

[4] = system: Pseudomonas aerugenosa (PSAE); assay: as above; details: Pseudomonas, IIIB, read-out: MIC (G-) PSAE, trypticase soy broth (complex media); Table IIIb
Source text: as §1, §2, §3

Escherichia coli (ECOL) = assay: as above; details: Escherichia coli, IIIB, read-out: MIC (G-) ECOL, trypticase soy broth (complex media); Table IIIb
[5] = system: Staphylococcus aureus (SAUR); assay: as above; details: Staphylococcus aureus, IIIB, read-out: MIC (G+) SAUR, trypticase soy broth (complex media); Table IIIb
Source text: as §1, §2, §3

[6] = Aspergillus niger, read-out: MIC ANIG
[7] = Aureobasidium pullulans, read-out: MIC APUL
[8] = Gloeophyllum trabeum, read-out: MIC GTRA

Compound `O=CNCC(=O)OCC#CI` [Compound 32, N-formylglycine iodopropargyl ester] has an MIC (Aspergillus niger (ANIG)) of 2 µg/mL (≈ 7.49 µM), an MIC [1] of 8 µg/mL (≈ 30 µM) and an MIC [2] of 6.2 µg/mL (≈ 23.2 µM). For the same compound, the ANIG growth (8 FUNGI; 0.2 PPM) was 0, the ANIG growth (8 FUNGI; 1.0 PPM) was 0 and the ANIG growth (8 FUNGI; 2.5 PPM) was 0. For the same compound, the ANIG growth (8 FUNGI; 25 PPM) was 1, the APUL growth (8 FUNGI; 0.2 PPM) was 0 and the APUL growth (8 FUNGI; 1.0 PPM) was 0. For the same compound, the APUL growth (8 FUNGI; 2.5 PPM) was 0, the APUL growth (8 FUNGI; 25 PPM) was 1 and the CGLO growth (8 FUNGI; 0.2 PPM) was 0. It also gave a CGLO growth (8 FUNGI; 1.0 PPM) of 0, a CGLO growth (8 FUNGI; 2.5 PPM) of 0 and a CGLO growth (8 FUNGI; 25 PPM) of 1. It also gave a CRES growth (8 FUNGI; 0.2 PPM) of 0, a CRES growth (8 FUNGI; 1.0 PPM) of 0 and a CRES growth (8 FUNGI; 2.5 PPM) of 0. The CRES growth (8 FUNGI; 25 PPM) was 1, the GTRA growth (8 FUNGI; 0.2 PPM) was 0 and the GTRA growth (8 FUNGI; 1.0 PPM) was 0. It also gave a GTRA growth (8 FUNGI; 2.5 PPM) of 0, a GTRA growth (8 FUNGI; 25 PPM) of 1 and a PFUN growth (8 FUNGI; 0.2 PPM) of 0. For the same compound, the PFUN growth (8 FUNGI; 1.0 PPM) was 0, the PFUN growth (8 FUNGI; 2.5 PPM) was 0 and the PFUN growth (8 FUNGI; 25 PPM) was 1. For the same compound, the RRUB growth (8 FUNGI; 0.2 PPM) was 0, the RRUB growth (8 FUNGI; 1.0 PPM) was 0 and the RRUB growth (8 FUNGI; 2.5 PPM) was 0. For the same compound, the RRUB growth (8 FUNGI; 25 PPM) was 1, the SSER growth (8 FUNGI; 0.2 PPM) was 0 and the SSER growth (8 FUNGI; 1.0 PPM) was 0. For the same compound, the SSER growth (8 FUNGI; 2.5 PPM) was 0, the SSER growth (8 FUNGI; 25 PPM) was 1 and the MIC (THREE FUNGI; [6]) was 12.5 µg/mL (≈ 46.8 µM). It also gave an MIC (THREE FUNGI; [7]) of 25 µg/mL (≈ 93.6 µM), an MIC (THREE FUNGI; [8]) of 3.2 µg/mL (≈ 12 µM) and an MIC [3] of 32 µg/mL (≈ 120 µM). The MIC [4] was 63 µg/mL (≈ 236 µM), the MIC (Escherichia coli (ECOL)) was 63 µg/mL (≈ 236 µM) and the MIC [5] was 63 µg/mL (≈ 236 µM).

`CCCCCCCC(=O)NCC(=O)OCC#CI` [Compound 34, N-octanoylglycine iodopropargyl ester] was tested, and the MIC (Aspergillus niger (ANIG)) was < 0.12 µg/mL, the MIC [1] was 8 µg/mL (≈ 21.9 µM) and the MIC [2] was 12.5 µg/mL (≈ 34.2 µM). For the same compound, the ANIG growth (8 FUNGI; 0.2 PPM) was 0, the ANIG growth (8 FUNGI; 1.0 PPM) was 1 and the ANIG growth (8 FUNGI; 2.5 PPM) was 1. For the same compound, the ANIG growth (8 FUNGI; 25 PPM) was 1, the APUL growth (8 FUNGI; 0.2 PPM) was 0 and the APUL growth (8 FUNGI; 1.0 PPM) was 0. The APUL growth (8 FUNGI; 2.5 PPM) was 0, the APUL growth (8 FUNGI; 25 PPM) was 1 and the CGLO growth (8 FUNGI; 0.2 PPM) was 0. The CGLO growth (8 FUNGI; 1.0 PPM) was 1, the CGLO growth (8 FUNGI; 2.5 PPM) was 0 and the CGLO growth (8 FUNGI; 25 PPM) was 1. It also gave a CRES growth (8 FUNGI; 0.2 PPM) of 0, a CRES growth (8 FUNGI; 1.0 PPM) of 0 and a CRES growth (8 FUNGI; 2.5 PPM) of 0. For the same compound, the CRES growth (8 FUNGI; 25 PPM) was 1, the GTRA growth (8 FUNGI; 0.2 PPM) was 0 and the GTRA growth (8 FUNGI; 1.0 PPM) was 1. It also gave a GTRA growth (8 FUNGI; 2.5 PPM) of 1, a GTRA growth (8 FUNGI; 25 PPM) of 1 and a PFUN growth (8 FUNGI; 0.2 PPM) of 0. For the same compound, the PFUN growth (8 FUNGI; 1.0 PPM) was 0, the PFUN growth (8 FUNGI; 2.5 PPM) was 1 and the PFUN growth (8 FUNGI; 25 PPM) was 1. For the same compound, the RRUB growth (8 FUNGI; 0.2 PPM) was 0, the RRUB growth (8 FUNGI; 1.0 PPM) was 0 and the RRUB growth (8 FUNGI; 2.5 PPM) was 0. It also gave an RRUB growth (8 FUNGI; 25 PPM) of 1, an SSER growth (8 FUNGI; 0.2 PPM) of 0 and an SSER growth (8 FUNGI; 1.0 PPM) of 0. The SSER growth (8 FUNGI; 2.5 PPM) was 0, the SSER growth (8 FUNGI; 25 PPM) was 1 and the MIC (THREE FUNGI; [6]) was 1.6 µg/mL (≈ 4.38 µM). It also gave an MIC (THREE FUNGI; [7]) of 12.5 µg/mL (≈ 34.2 µM), an MIC (THREE FUNGI; [8]) of 3.2 µg/mL (≈ 8.76 µM) and an MIC [3] of 63 µg/mL (≈ 173 µM). For the same compound, the MIC [4] was 125 µg/mL (≈ 342 µM), the MIC (Escherichia coli (ECOL)) was > 250 µg/mL and the MIC [5] was 250 µg/mL (≈ 685 µM).

`C/C=C/C=C/C(=O)NCC(=O)OCC#CI` [Compound 35, N-sorbylglycine iodopropargyl ester] showed an MIC (Aspergillus niger (ANIG)) of 2 µg/mL (≈ 6 µM), an MIC [1] of 4 µg/mL (≈ 12 µM) and an MIC [2] of 6.2 µg/mL (≈ 18.6 µM). The ANIG growth (8 FUNGI; 0.2 PPM) was 0, the ANIG growth (8 FUNGI; 1.0 PPM) was 1 and the ANIG growth (8 FUNGI; 2.5 PPM) was 1. For the same compound, the ANIG growth (8 FUNGI; 25 PPM) was 1, the APUL growth (8 FUNGI; 0.2 PPM) was 0 and the APUL growth (8 FUNGI; 1.0 PPM) was 0. It also gave an APUL growth (8 FUNGI; 2.5 PPM) of 0, an APUL growth (8 FUNGI; 25 PPM) of 1 and a CGLO growth (8 FUNGI; 0.2 PPM) of 0. It also gave a CGLO growth (8 FUNGI; 1.0 PPM) of 1, a CGLO growth (8 FUNGI; 2.5 PPM) of 1 and a CGLO growth (8 FUNGI; 25 PPM) of 1. It also gave a CRES growth (8 FUNGI; 0.2 PPM) of 0, a CRES growth (8 FUNGI; 1.0 PPM) of 0 and a CRES growth (8 FUNGI; 2.5 PPM) of 0. It also gave a CRES growth (8 FUNGI; 25 PPM) of 1, a GTRA growth (8 FUNGI; 0.2 PPM) of 0 and a GTRA growth (8 FUNGI; 1.0 PPM) of 1. The GTRA growth (8 FUNGI; 2.5 PPM) was 1, the GTRA growth (8 FUNGI; 25 PPM) was 1 and the PFUN growth (8 FUNGI; 0.2 PPM) was 0. It also gave a PFUN growth (8 FUNGI; 1.0 PPM) of 0, a PFUN growth (8 FUNGI; 2.5 PPM) of 1 and a PFUN growth (8 FUNGI; 25 PPM) of 1. For the same compound, the RRUB growth (8 FUNGI; 0.2 PPM) was 0, the RRUB growth (8 FUNGI; 1.0 PPM) was 0 and the RRUB growth (8 FUNGI; 2.5 PPM) was 1. For the same compound, the RRUB growth (8 FUNGI; 25 PPM) was 1, the SSER growth (8 FUNGI; 0.2 PPM) was 0 and the SSER growth (8 FUNGI; 1.0 PPM) was 0. For the same compound, the SSER growth (8 FUNGI; 2.5 PPM) was 0, the SSER growth (8 FUNGI; 25 PPM) was 1 and the MIC (THREE FUNGI; [6]) was 1.6 µg/mL (≈ 4.8 µM). For the same compound, the MIC (THREE FUNGI; [7]) was 6.2 µg/mL (≈ 18.6 µM), the MIC (THREE FUNGI; [8]) was 0.4 µg/mL (≈ 1.2 µM) and the MIC [3] was 63 µg/mL (≈ 189 µM). It also gave an MIC [4] of 125 µg/mL (≈ 375 µM), an MIC (Escherichia coli (ECOL)) of 125 µg/mL (≈ 375 µM) and an MIC [5] of 63 µg/mL (≈ 189 µM).

From patent publication EP0414533A1, “Use of iodopropargyl esters of alpha-amino acid derivatives as antimicrobial agents” (ROHM AND HAAS COMPANY, priority 1989, dated 1991)
